Source: patent publication US20150344485A1, “BICYCLIC PYRIMIDONE COMPOUNDS AS INHIBITORS OF LP-PLA2” (GLAXOSMITHKLINE INTELLECTUAL PROPERTY DEVELOPMENT LIMITED, priority 2013, published 2015)
Like-named read-outs stand apart in the source and are kept apart here.

How the values were obtained:
[1] = target: T1, recombinant human Lp-PLA2 (Homo sapiens, UniProt Q13093); experiment: Recombinant human Lp-PLA2 assay (rhLp-PLA2, PED6 assay); type: biochemical
T1 sequence (Q13093 22-441): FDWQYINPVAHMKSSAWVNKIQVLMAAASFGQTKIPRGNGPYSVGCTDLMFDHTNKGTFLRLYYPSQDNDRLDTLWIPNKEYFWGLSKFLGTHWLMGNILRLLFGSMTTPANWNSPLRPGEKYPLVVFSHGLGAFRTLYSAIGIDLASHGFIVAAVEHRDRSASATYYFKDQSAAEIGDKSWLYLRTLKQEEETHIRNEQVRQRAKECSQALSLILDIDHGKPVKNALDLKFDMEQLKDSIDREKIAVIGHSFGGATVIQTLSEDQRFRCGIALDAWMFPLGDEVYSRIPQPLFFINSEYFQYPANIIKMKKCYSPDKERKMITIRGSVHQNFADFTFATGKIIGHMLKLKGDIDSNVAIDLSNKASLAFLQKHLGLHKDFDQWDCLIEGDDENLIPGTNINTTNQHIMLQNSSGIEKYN
Procedure, shortened: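 Enzyme (4 nM or 110 pM, as stated for the 5 μL addition) preincubated 30 min with compound in 50 mM HEPES pH 7.4, 150 mM NaCl, 1 mM CHAPS, then PED6 substrate (4 or 5 μM in the addition) added. Fluorescence (ex 480/em 540) read after 20 min, room temperature; pIC50 from curve fitting.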

[2] = target: T2, Lp-PLA2 in human plasma (Homo sapiens, UniProt Q13093); experiment: Lp-PLA2 human plasma assay (Thio-PAF assay); type: biochemical; settings: pooled human plasma; read-out: pIC50 values in the thio-PAF assay (converted)
T2 construct: from tissue; host or cells: pooled human plasma
T2 sequence (Q13093 22-441): T1 sequence (Q13093 22-441)
Procedure, shortened: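 Pooled human plasma preincubated 30 min with compound, then 2-thio-PAF substrate added with CPM and NEM in 50 mM HEPES pH 7.4, 150 mM NaCl, 1 mM CHAPS. Quenched with TFA after 2 min, incubated 40 min at room temperature, and read by fluorescence at ex 380/em 485 nm. Values given as pIC50.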

[3] = read-out: pIC50 values in the recombinant human Lp-PLA2 assay (converted)
[4] = read-out: rhLp-PLA2 (PED6 assay) (pIC50) (converted)

Row | IC50 [1, 3] | IC50 [1, 4] | IC50 [2] | SMILES
1 | ≤ 1 nM | 0.398 nM | ≤ 100 nM | C[C@H]1CCn2c(cc(OCc3ccc(Oc4cnc(C(F)(F)F)nc4)c(F)c3)nc2=O)N1C [E107, (S)-8-((3-fluoro-4-((2-(trifluoromethyl)pyrimidin-5-yl)oxy)benzyl)oxy)-1,2-dimethyl-3,4-dihydro-1H-pyrimido[1,6-a]pyrimidin-6(2H)-one]
2 | ≤ 1 nM |  | ≤ 100 nM | C[C@@H]1CCn2c(cc(OCc3ccc(Oc4ccc(C(F)(F)F)c(F)c4)cc3)nc2=O)N1C [E108, (R)-8-((4-(3-fluoro-4-(trifluoromethyl)phenoxy)benzyl)oxy)-1,2-dimethyl-3,4-dihydro-1H-pyrimido[1,6-a]pyrimidin-6(2H)-one]
3 | ≤ 1 nM | 0.631 nM | ≤ 100 nM | C[C@@H]1CCn2c(cc(OCc3ccc(Oc4cnc(C(F)(F)F)nc4)c(F)c3)nc2=O)N1C [E110, (R)-8-((3-fluoro-4-((2-(trifluoromethyl)pyrimidin-5-yl)oxy)benzyl)oxy)-1,2-dimethyl-3,4-dihydro-1H-pyrimido[1,6-a]pyrimidin-6(2H)-one]
4 | ≤ 1 nM |  | ≤ 10 nM | C[C@@H]1CCn2c(cc(OCc3ccc(Oc4ccc(C(F)(F)F)nc4)c(C#N)c3)nc2=O)N1C [E115, (R)-5-(((1,2-dimethyl-6-oxo-2,3,4,6-tetrahydro-1H-pyrimido[1,6-a]pyrimidin-8-yl)oxy)methyl)-2-((6-(trifluoromethyl)pyridin-3-yl)oxy)benzonitrile]
5 | ≤ 1 nM |  | ≤ 100 nM | C[C@@H]1CCn2c(cc(OCc3ccc(Oc4cccc(C(F)(F)F)c4)c(F)c3)nc2=O)N1C [E120, (R)-8-((3-fluoro-4-(3-(trifluoromethyl)phenoxy)benzyl)oxy)-1,2-dimethyl-3,4-dihydro-1H-pyrimido[1,6-a]pyrimidin-6(2H)-one]
6 | ≤ 1 nM |  | ≤ 100 nM | C[C@@H]1CCn2c(cc(OCc3ccc(Oc4ccc(C(F)(F)F)cc4)c(F)c3)nc2=O)N1C [E121, (R)-8-((3-fluoro-4-(4-(trifluoromethyl)phenoxy)benzyl)oxy)-1,2-dimethyl-3,4-dihydro-1H-pyrimido[1,6-a]pyrimidin-6(2H)-one]
7 | ≤ 1 nM |  | ≤ 100 nM | C[C@@H]1CCn2c(cc(OCc3cc(F)c(Oc4ccc(F)cc4)c(F)c3)nc2=O)N1C [E122, (R)-8-((3,5-difluoro-4-(4-fluorophenoxy)benzyl)oxy)-1,2-dimethyl-3,4-dihydro-1H-pyrimido[1,6-a]pyrimidin-6(2H)-one]
8 | ≤ 1 nM |  | ≤ 10 nM | C[C@@H]1CCn2c(cc(OCc3ccc(Oc4cccc(C(F)(F)F)c4)c(C#N)c3)nc2=O)N1C [E123, (R)-5-(((1,2-dimethyl-6-oxo-2,3,4,6-tetrahydro-1H-pyrimido[1,6-a]pyrimidin-8-yl)oxy)methyl)-2-(3-(trifluoromethyl)phenoxy)benzonitrile]
9 | ≤ 1 nM |  | ≤ 100 nM | C[C@@H]1CCn2c(cc(OCc3cc(F)c(Oc4ccc(Cl)cc4)c(F)c3)nc2=O)N1C [E124, (R)-8-((4-(4-chlorophenoxy)-3,5-difluorobenzyl)oxy)-1,2-dim ethyl-3,4-dihydro-1H-pyrimido[1,6-a]pyrimidin-6(2H)-one]
10 | ≤ 1 nM |  | ≤ 100 nM | C[C@@H]1CCn2c(cc(OCc3ccc(Oc4ccc(F)cc4)c(C#N)c3)nc2=O)N1C [E125, (R)-5-(((1,2-dimethyl-6-oxo-2,3,4,6-tetrahydro-1H-pyrimido[1,6-a]pyrimidin-8-yl)oxy)methyl)-2-(4-fluorophenoxy)benzonitrile]
11 | ≤ 1 nM |  | ≤ 100 nM | C[C@H]1CCn2c(cc(OCc3ccc(Oc4ccc(F)cc4)c(C#N)c3)nc2=O)N1C [E126, (S)-5-(((1,2-dimethyl-6-oxo-2,3,4,6-tetrahydro-1H-pyrimido[1,6-a]pyrimidin-8-yl)oxy)methyl)-2-(4-fluorophenoxyl)benzonitrile]
12 | ≤ 1 nM |  | ≤ 10 nM | C[C@H]1CCn2c(cc(OCc3ccc(Oc4ccc(C(F)(F)F)nc4)c(F)c3)nc2=O)N1C [E142, (S)-8-((3-fluoro-4-((6-(trifluoromethyl)pyridin-3-yl)oxy)benzyl)oxy)-1,2-dimethyl-3,4-dihydro-1H-pyrimido[1,6-a]pyrimidin-6(2H)-one]
13 | ≤ 1 nM |  | ≤ 10 nM | C[C@@H]1CCn2c(cc(OCc3ccc(Oc4ccc(Cl)c(C(F)(F)F)c4)c(F)c3)nc2=O)N1C [E143]
14 | ≤ 1 nM |  | ≤ 10 nM | C[C@@H]1CCn2c(cc(OCc3ccc(Oc4ccc(C(F)(F)F)nc4)c(F)c3)nc2=O)N1C [E145, (R)-8-((3-fluoro-4-((6-(trifluoromethyl)pyridin-3-yl)oxy)benzyl)oxy)-1,2-dimethyl-3,4-dihydro-1H-pyrimido[1,6-a]pyrimidin-6(2H)-one]

Further lines, the molecule ahead of its results:

Row | SMILES | IC50 [1, 3] | IC50 [1, 4] | IC50 [2]
15 | C[C@@H]1CCn2c(cc(OCc3cc(F)c(Oc4ccc(F)c(Cl)c4)c(F)c3)nc2=O)N1C [E109] | ≤ 1 nM |  | ≤ 10 nM
16 | CN1c2cc(OCc3ccc(Oc4ccc(F)c(F)c4)c(C#N)c3)nc(=O)n2CCC1(C)C [E111, 2-(3,4-difluorophenoxy)-5-(((1,2,2-trimethyl-6-oxo-2,3,4,6-tetrahydro-1H-pyrimido[1,6-a]pyrimidin-8-yl)oxy)methyl)benzonitrile] | ≤ 1 nM |  | ≤ 10 nM
17 | CN1c2cc(OCc3ccc(Oc4ccc(C(F)(F)F)nc4)c(C#N)c3)nc(=O)n2CCC1(C)C [E112, 2-((6-(trifluoromethyl)pyridin-3-yl)oxy)-5-(((1,2,2-trimethyl-6-oxo-2,3,4,6-tetrahydro-1H-pyrimido[1,6-a]pyrimidin-8-yl)oxy)methyl)benzonitrile] | ≤ 1 nM |  | ≤ 10 nM
18 | C[C@H]1CCn2c(cc(OCc3ccc(Oc4ccc(C(F)(F)F)nc4)c(C#N)c3)nc2=O)N1C [E113, (S)-5-(((1,2-dimethyl-6-oxo-2,3,4,6-tetrahydro-1H-pyrimido[1,6-a]pyrimidin-8-yl)oxy)methyl)-2-((6-(trifluoromethyl)pyridin-3-yl)oxy)benzonitrile] | ≤ 1 nM |  | ≤ 100 nM
19 | C[C@@H]1CCn2c(cc(OCc3ccc(Oc4ccc(F)c(F)c4)c(C#N)c3)nc2=O)N1C [E114, (R)-2-(3,4-difluorophenoxy)-5-(((1,2-dimethyl-6-oxo-2,3,4,6-tetrahydro-1H-pyrimido[1,6-a]pyrimidin-8-yl)oxy)methyl)benzonitrile] | ≤ 1 nM |  | ≤ 10 nM
20 | CN1c2cc(OCc3ccc(Oc4ccc(F)c(C(F)(F)F)c4)c(C#N)c3)nc(=O)n2CCC1(C)C [E116, 2-(4-fluoro-3-(trifluoromethyl)phenoxy)-5-(((1,2,2-trimethyl-6-oxo-2,3,4,6-tetrahydro-1H-pyrimido[1,6-a]pyrimidin-8-yl)oxy)methyl)benzonitrile] | ≤ 1 nM |  | ≤ 10 nM
21 | CN1c2cc(OCc3ccc(Oc4cccc(F)c4)c(C#N)c3)nc(=O)n2CCC1(C)C [E117, 2-(3-fluorophenoxy)-5-(((1,2,2-trimethyl-6-oxo-2,3,4,6-tetrahydro-1H-pyrimido[1,6-a]pyrimidin-8-yl)oxy)methyl)benzonitrile] | ≤ 1 nM |  | ≤ 100 nM
22 | CN1c2cc(OCc3ccc(Oc4ccc(F)cc4)c(C#N)c3)nc(=O)n2CCC1(C)C [E118, 2-(4-fluorophenoxy)-5-(((1,2,2-trimethyl-6-oxo-2,3,4,6-tetrahydro-1H-pyrimido[1,6-a]pyrimidin-8-yl)oxy)methyl)benzonitrile] | ≤ 1 nM |  | ≤ 100 nM
23 | C[C@@H]1CCn2c(cc(OCc3cc(F)c(Oc4ccc(C(F)(F)F)nc4)c(F)c3)nc2=O)N1C [E119, (R)-8-((3,5-difluoro-4-((6-(trifluoromethyl)pyridin-3-yl)oxy)benzyl)oxy)-1,2-dimethyl-3,4-dihydro-1H-pyrimido[1,6-a]pyrimidin-6(2H)-one] | ≤ 1 nM |  | ≤ 100 nM
24 | CN1c2cc(OCc3cccc(C#N)c3)nc(=O)n2CCC1(C)C [E133, 3-(((1,2,2-trimethyl-6-oxo-2,3,4,6-tetrahydro-1H-pyrimido[1,6-a]pyrimidin-8-yl)oxy)methyl)benzonitrile] | ≤ 1 nM |  | ≤ 10 nM
25 | CN1c2cc(OCc3ccc(F)cc3)nc(=O)n2CCC1(C)C [E135, 8-((4-fluorobenzyl)oxy)-1,2,2-trimethyl-3,4-dihydro-1H-pyrimido[1,6-a]pyrimidin-6(2H)-one] | ≤ 1 nM |  | ≤ 10 nM
26 | CC(C)N1c2cc(OCc3cc(F)c(F)c(F)c3)nc(=O)n2CC[C@@H]1C [E140, (S)-1-isopropyl-2-methyl-8-((3,4,5-trifluorobenzyl)oxy)-3,4-dihydro-1H-pyrimido[1,6-a]pyrimidin-6(2H)-one] | ≤ 1 nM |  | ≤ 100 nM
27 | C[C@@H]1CCn2c(cc(OCc3cc(F)c(Oc4ccnc(C(F)(F)F)c4)c(F)c3)nc2=O)N1C [E144, (R)-8-((3,5-difluoro-4-((2-(trifluoromethyl)pyridin-4-yl)oxy)benzyl)oxy)-1,2-dimethyl-3,4-dihydro-1H-pyrimido[1,6-a]pyrimidin-6(2H)-one] | ≤ 1 nM | 0.0251 nM | ≤ 10 nM
